Laboratory results published in patent US6656911B2, “Serine protease inhibitors” (Cortech, Inc., priority 1994, dated 2003).

Legend:
[1] = target: T1, elastase derived from human sputum (HSE) (Homo sapiens, UniProt P08246); test: In vitro inhibition of elastase (ONO-PO series); assay type: biochemical; settings: substrate N-methoxysuccinyl-Ala-Ala-Pro-Val-p-nitroaniline, 37° C., pH 8.0, IC50 converted to Ki by Dixson plot
T1 construct: prepared from commercially available HSE (875 U/mg protein, SE-563, Elastin Product Co., Inc., Missouri, USA); purchased Elastin Product Co., Inc., Missouri, USA SE-563; host or cells: human sputum (natural enzyme)
T1 sequence (P08246 30-247 limits assumed): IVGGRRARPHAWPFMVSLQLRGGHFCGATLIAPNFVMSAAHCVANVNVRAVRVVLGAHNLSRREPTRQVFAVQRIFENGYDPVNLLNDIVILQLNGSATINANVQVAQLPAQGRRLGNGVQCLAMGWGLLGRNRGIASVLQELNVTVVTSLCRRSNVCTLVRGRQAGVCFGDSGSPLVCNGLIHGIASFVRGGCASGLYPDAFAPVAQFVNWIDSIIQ

[2] = target: T2, human neutrophil elastase (HNE) (Homo sapiens, UniProt P08246); test: HNE Ki of CE compounds, tested as described in WO 96/16080; assay type: biochemical; settings: read-out: HNE Ki
T2 sequence (P08246 30-267): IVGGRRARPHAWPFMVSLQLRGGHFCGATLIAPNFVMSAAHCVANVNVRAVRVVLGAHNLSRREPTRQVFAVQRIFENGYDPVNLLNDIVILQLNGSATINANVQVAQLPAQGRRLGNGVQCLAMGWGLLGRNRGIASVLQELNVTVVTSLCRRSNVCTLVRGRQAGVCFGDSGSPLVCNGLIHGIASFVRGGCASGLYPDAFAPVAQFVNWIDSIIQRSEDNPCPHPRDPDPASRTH

[3] = tested on: polymorphoneucleocyte (PMN); test: Extracellular Matrix (ECM) degradation assay; assay type: cell-based; settings: PMN's stimulated with opsonized zymosan, 4 hr at 37° C.; for ECM DATA % Inhibition 1 uM / inhibition at 1 µM: 1 uM inhibitor; for ECM DATA % Inhibition 5 uM / inhibition at 5 µM: 5 uM inhibitor
Outline: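 Radiolabelled ([35S]sulfate/[3H]proline) ECM from R22 rat smooth muscle cells preincubated 30 min with 1 or 5 uM inhibitor in HBSS (<2% DMSO). PMNs (5×10^5/well) stimulated with serum-opsonized zymosan (10 particles/PMN), 4 h at 37 °C. Degradation = released over total ECM counts, minus PMN-free basal release.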

[4] = Blood level screening after oral dose; assay type: in vivo, Sprague-Dawley rats; settings: rat, oral gavage 10 mg/kg; for concentration at 1 h / concentration at 3 h / concentration at 6 h: male, Sprague-Dawley, plasma; for concentration at 1 h: read-out: Plasma Levels (μM) 1 hr; for concentration at 3 h: read-out: Plasma Levels (μM) 3 hr; for concentration at 6 h: read-out: Plasma Levels (μM) 6 hr
Outline: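 Unfasted male Sprague-Dawley rats received 10 mg/kg by oral gavage in PEG, PEG-400 or PEG:H2O:EtOH. Plasma was solvent-extracted and the inhibitor measured by HPLC or LC/MS.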

CC(C)C(NC(=O)Cn1c(-c2ccccc2)nccc1=O)C(=O)c1nnc(C(C)(C)C)o1 (racemic) [ONO-PO-737, 2-[6-Oxo-2-phenyl)-1,6-dihydro-1-pyrimidinyl]-N-[1-(2-[5-tert-butyl-1,3,4-oxadiazolyl]carbonyl)-2-(R,S)-methylpropyl]acetamide]
Ki [1]: 36.3 nM

Cc1cccc(Cc2nnc(C(=O)[C@@H](NC(=O)CN3C(=O)NC(c4ccccc4)(c4ccccc4)C3=O)C(C)C)o2)c1 [CE2252, 4,4-Diphenyl-2,5-imidazolidinedione-N-[1-(2-[5-(3-methylbenzyl)-1,3,4-oxadiazolyl]carbonyl)-2-(S)-methylpropyl]acetamide]
Ki [2]: 1.9 nM | ECM DATA % Inhibition 1 uM [3]: 45.4% | ECM DATA % Inhibition 5 uM [3]: 65.2% | Plasma Levels (μM) 1 hr [4]: 0.114 µM | Plasma Levels (μM) 3 hr [4]: 0.188 µM | Plasma Levels (μM) 6 hr [4]: 0.1 µM

Cc1cccc(Cc2nnc(C(=O)[C@@H](NC(=O)CN3C(=O)NC4(Cc5ccccc5C4)C3=O)C(C)C)o2)c1 [CE2253, 4-Spiro-(2-indanyl)-2,5-imidazolidinedione-N-[1-(2-[5-(3-methylbenzyl)-1,3,4-oxadiazolyl]carbonyl)-2-(S)-methylpropyl]acetamide]
Ki [2]: 11 nM | inhibition at 1 µM [3]: 31.9% | inhibition at 5 µM [3]: 45.9% | concentration at 1 h [4]: 0.282 µM | concentration at 3 h [4]: 0.246 µM | concentration at 6 h [4]: 0.163 µM

CC(C)[C@H](NC(=O)CN1C(=O)N[C@H](Cc2ccc(O)cc2)C1=O)C(=O)c1nnc(Cc2ccc3c(c2)OCO3)o1 [CE2256, 4-(R)-(4-Hydroxybenzyl)-2,5-imidazolidinedione-N-[1-(2-[5-(3,4-methylenedioxybenzyl)-1,3,4-oxadiazolyl]carbonyl)-2-(S)-methylpropyl]acetamide]
Ki [2]: 16 nM | ECM DATA % Inhibition 1 uM [3]: 24% | ECM DATA % Inhibition 5 uM [3]: 47.8% | Plasma Levels (μM) 1 hr [4]: 0.9 µM | Plasma Levels (μM) 3 hr [4]: 0.33 µM | Plasma Levels (μM) 6 hr [4]: 0.2 µM

Cc1cccc(Cc2nnc(C(=O)[C@@H](NC(=O)CN3C(=O)CN=C(c4ccccc4N(C)C)c4ccccc43)C(C)C)o2)c1 [CE2258, 2-Oxo-5-phenyl-1,4-(2′-dimethylaminobenzodiazepine)-N-[1-(2-[5-(3-methylbenzyl)-1,3,4-oxadiazolyl]carbonyl)-2-(S)-methylpropyl]acetamide]
Ki [2]: 3.7 nM | ECM DATA % Inhibition 1 uM [3]: 42.9% | ECM DATA % Inhibition 5 uM [3]: 38.1% | Plasma Levels (μM) 1 hr [4]: 1.624 µM | Plasma Levels (μM) 3 hr [4]: 1.5 µM | Plasma Levels (μM) 6 hr [4]: 1.212 µM

CC(C)[C@H](NC(=O)CN1C(=O)NC(c2ccccc2)(c2ccccc2)C1=O)C(=O)c1nnc(Cc2ccc3c(c2)OCO3)o1 [CE2259, 4,4-Diphenyl-2,5-imidazolidinedione-N-[1-(2-[5-(3,4-methylenedioxybenzyl)-1,3,4-oxadiazolyl]carbonyl)-2-(S)-methylpropyl]acetamide]
Ki [2]: 3.3 nM | ECM DATA % Inhibition 1 uM [3]: 43% | ECM DATA % Inhibition 5 uM [3]: 59.6% | Plasma Levels (μM) 1 hr [4]: 0.597 µM | Plasma Levels (μM) 3 hr [4]: 0.846 µM | Plasma Levels (μM) 6 hr [4]: 0.502 µM

Cc1cccc(Cc2nnc(C(=O)[C@@H](NC(=O)Cn3c(-c4ccccc4)ncc(N)c3=O)C(C)C)o2)c1 [CE2260, 2-[5-Amino-6-oxo-2-phenyl-1,6-dihydro-1-pyrimidinyl]-N-[1-(2-[5-(3-methylbenzyl)-1,3,4-oxadiazolyl]carbonyl)-2-(S)-methylpropyl]acetamide]
Ki [2]: 0.39 nM | inhibition at 1 µM [3]: 68.3% | inhibition at 5 µM [3]: 59.7% | concentration at 1 h [4]: 3.53 µM | concentration at 3 h [4]: 3.05 µM | concentration at 6 h [4]: 1.89 µM

CC(C)[C@H](NC(=O)Cn1c(-c2ccc(F)cc2)ncc(NC(=O)OCc2ccccc2)c1=O)C(=O)c1nnc(C(C)(C)c2ccccc2)o1 [ONO-PO-690, 2-[5-(Benzyloxycarbonyl)amino-6-oxo-2-(4-fluorophenyl)-1,6-dihydro-1-pyrimidinyl]-N-[1-(2-[5-(α,α-dimethylbenzyl)-1,3,4-oxadiazolyl]carbonyl)-2-(S)-methylpropyl]acetamide]
Ki [1]: 78.3 nM

CC(C)[C@H](NC(=O)Cn1c(-c2ccc(F)cc2)ncc(N)c1=O)C(=O)c1nnc(-c2ccccc2)o1 [ONO-PO-694, 2-[5-Amino-6-oxo-2-(4-fluorophenyl)-1,6-dihydro-1-pyrimidinyl]-N-[1-(2-[5-phenyl-1,3,4-oxadiazolyl]carbonyl)-2-(S)-methylpropyl]acetamide]
Ki [1]: 24.8 nM

CC(C)[C@H](NC(=O)Cn1c(-c2ccc(F)cc2)ncc(N)c1=O)C(=O)c1nnc(-c2cccnc2)o1 [ONO-PO-695, 2-[5-Amino-6-oxo-2-(4-fluorophenyl)-1,6-dihydro-1-pyrimidinyl]-N-[1-(2-[5-(3-pyridyl)-1,3,4-oxadiazolyl]carbonyl)-2-(S)-methylpropyl]acetamide]
Ki [1]: 13.9 nM

CC(C)[C@H](NC(=O)Cn1c(-c2ccc(F)cc2)ncc(NC(=O)OCc2ccccc2)c1=O)C(=O)c1nnc(-c2ccccc2)o1 [ONO-PO-697, 2-[5-(Benzyloxycarbonyl)amino-6-oxo-2-(4-fluorophenyl)-1,6-dihydro-1-pyrimidinyl]-N-[1-(2-[5-phenyl-1,3,4-oxadiazolyl]carbonyl)-2-(S)-methylpropyl]acetamide]
Ki [1]: 27.3 nM

CC(C)[C@H](NC(=O)Cn1c(-c2ccc(F)cc2)ncc(NC(=O)OCc2ccccc2)c1=O)C(=O)c1nnc(C(C)(C)C)o1 [ONO-PO-698, 2-[5-(Benzyloxycarbonyl)amino-6-oxo-2-(4-fluorophenyl)-1,6-dihydro-1-pyrimidinyl]-N-[1-(2-[5-tert-butyl-1,3,4-oxadiazolyl]carbonyl)-2-(S)-methylpropyl]acetamide]
Ki [1]: 0.77 nM

COc1ccc(-c2nnc(C(=O)[C@@H](NC(=O)Cn3c(-c4ccc(F)cc4)ncc(N)c3=O)C(C)C)o2)cc1 [ONO-PO-699, 2-[5-Amino-6-oxo-2-(4-fluorophenyl)-1,6-dihydro-1-pyrimidinyl]-N-[1-(2-[5-(4-methoxyphenyl)-1,3,4-oxadiazolyl]carbonyl)-2-(S)-methylpropyl]acetamide]
Ki [1]: 21.2 nM

CC(C)[C@H](NC(=O)Cn1c(-c2ccc(F)cc2)ncc(N)c1=O)C(=O)c1nnc(C(C)(C)c2ccc(O)c(O)c2)o1 [ONO-PO-701, 2-[5-Amino-6-oxo-2-(4-fluorophenyl)-1,6-dihydro-1-pyrimidinyl]-N-[1-(2-[5-(α,α-dimethyl-3,4-dihydroxybenzyl)-1,3,4-oxadiazolyl]carbonyl)-2-(S)-methylpropyl]acetamide]
Ki [1]: 2.98 nM

Cc1cccc(Cc2nnc(C(=O)[C@@H](NC(=O)Cn3c(-c4ccc(F)cc4)ncc(NS(C)(=O)=O)c3=O)C(C)C)o2)c1 [ONO-PO-702, 2-[5-(Methylsulfonyl)amino-6-oxo-2-(4-fluorophenyl)-1,6-dihydro-1-pyrimidinyl]-N-[1-(2-[5-(3-methylbenzyl)-1,3,4-oxadiazolyl]carbonyl)-2-(S)-methylpropyl]acetamide]
Ki [1]: 1.78 nM

CC(C)[C@H](NC(=O)Cn1c(-c2ccc(F)cc2)ncc(N)c1=O)C(=O)c1nnc(Cc2ccccc2)o1 [ONO-PO-703, 2-[5-Amino-6-oxo-2-(4-fluorophenyl)-1,6-dihydro-1-pyrimidinyl]-N-[1-(2-[5-benzyl-1,3,4-oxadiazolyl]carbonyl)-2-(S)-methylpropyl]acetamide]
Ki [1]: 2.25 nM

Cc1nnc(C(=O)[C@@H](NC(=O)Cn2c(-c3ccc(F)cc3)ncc(N)c2=O)C(C)C)o1 [ONO-PO-704, 2-[5-Amino-6-oxo-2-(4-fluorophenyl)-1,6-dihydro-1-pyrimidinyl]-N-[1-(2-[5-methyl-1,3,4-oxadiazolyl]carbonyl)-2-(S)-methylpropyl]acetamide]
Ki [1]: 14 nM

CC(C)c1nnc(C(=O)[C@@H](NC(=O)Cn2c(-c3ccc(F)cc3)ncc(N)c2=O)C(C)C)o1 [ONO-PO-705, 2-[5-Amino-6-oxo-2-(4-fluorophenyl)-1,6-dihydro-1-pyrimidinyl]-N-[1-(2-[5-isopropyl-1,3,4-oxadiazolyl]carbonyl)-2-(S)-methylpropyl]acetamide]
Ki [1]: 10.7 nM

CCCCc1nnc(C(=O)[C@@H](NC(=O)Cn2c(-c3ccc(F)cc3)ncc(N)c2=O)C(C)C)o1 [ONO-PO-706, 2-[5-Amino-6-oxo-2-(4-fluorophenyl)-1,6-dihydro-1-pyrimidinyl]-N-[1-(2-[5-butyl-1,3,4-oxadiazolyl]carbonyl)-2-(S)-methylpropyl]acetamide]
Ki [1]: 6.76 nM
